# Measured values taken from ChEMBL document CHEMBL2434830, “Inhibitory constituents from the aerial parts of Polygala tenuifolia on LPS-induced NO production in BV2 microglia cells” (Bioorg Med Chem Lett, 2013).
# What was measured:
# BV-2 [1] = test: Cytotoxicity against mouse BV2 cells assessed as cell viability at 50 uM by MTT assay; format: cell-based; settings: bv-2, 50 µM
# BV-2 [2] = test: Antiinflammatory activity in mouse BV2 cells assessed as inhibition of LPS-induced NO production after 24 hrs by Griess assay; format: functional, cell-based; settings: BV-2, 24 h
IC50 (BV-2 [2]),SMILES,Activity (BV-2 [1])
,COc1c(O)cc2oc3ccc(O)cc3c(=O)c2c1O,Toxic
,COc1cc2oc3cc(O)c(O)cc3c(=O)c2c(O)c1OC,Toxic
20.6 µM,O=c1c2cc(O)ccc2oc2cc3c(c(O)c12)OCO3,
38.4 µM,O=c1c2cc(O)ccc2oc2c(O[C@@H]3O[C@H](CO)[C@@H](O)[C@H](O)[C@H]3O)ccc(O)c12,
,O=c1c2ccc(O)cc2oc2cccc(O)c12,Toxic
7.4 µM,COc1ccc(O)c2c(=O)c3cc(O)ccc3oc12,
> 100 µM,COc1cc2c(=O)c3c(O)cc(O)cc3oc2cc1O [ALLOATHYRIOL],
7.1 µM,COc1ccc2c(c1)c(CC(=O)O)c(C)n2C(=O)c1ccc(Cl)cc1 [INDOMETHACIN],
38.5 µM,O=c1c2cc(O)c(O)cc2oc2cc(O)c([C@@H]3O[C@H](CO)[C@@H](O)[C@H](O)[C@H]3O)c(O)c12 [MANGIFERIN],
